From US11572590B2, “Methods for evaluating tumor cell spheroids using 3D microfluidic cell culture device” (Dana-Farber Cancer Institute, Inc., priority 2017, dated 2023) come the findings set out here.

The structures appear in SMILES notation. Where two headings read alike, the source gives them in different places.

Holding throughout (test): SelectScreen Kinase Profiling, single point inhibition and IC50 for off-target kinases
Common to all, as to format: biochemical

Assay [1] has as its target off-target kinases (Homo sapiens, UniProt O95819). Particulars: MAP4K4 (HGK), ATP Km app, ZLYTE.
The target in assay [2] is off-target kinases (Homo sapiens, UniProt Q9NYY3). Particulars: PLK2, ATP Km app, ZLYTE.
Assay [3] addresses T1, off-target kinases (Homo sapiens, UniProt Q9Y2U5).
T1 sequence (Q9Y2U5 1-619): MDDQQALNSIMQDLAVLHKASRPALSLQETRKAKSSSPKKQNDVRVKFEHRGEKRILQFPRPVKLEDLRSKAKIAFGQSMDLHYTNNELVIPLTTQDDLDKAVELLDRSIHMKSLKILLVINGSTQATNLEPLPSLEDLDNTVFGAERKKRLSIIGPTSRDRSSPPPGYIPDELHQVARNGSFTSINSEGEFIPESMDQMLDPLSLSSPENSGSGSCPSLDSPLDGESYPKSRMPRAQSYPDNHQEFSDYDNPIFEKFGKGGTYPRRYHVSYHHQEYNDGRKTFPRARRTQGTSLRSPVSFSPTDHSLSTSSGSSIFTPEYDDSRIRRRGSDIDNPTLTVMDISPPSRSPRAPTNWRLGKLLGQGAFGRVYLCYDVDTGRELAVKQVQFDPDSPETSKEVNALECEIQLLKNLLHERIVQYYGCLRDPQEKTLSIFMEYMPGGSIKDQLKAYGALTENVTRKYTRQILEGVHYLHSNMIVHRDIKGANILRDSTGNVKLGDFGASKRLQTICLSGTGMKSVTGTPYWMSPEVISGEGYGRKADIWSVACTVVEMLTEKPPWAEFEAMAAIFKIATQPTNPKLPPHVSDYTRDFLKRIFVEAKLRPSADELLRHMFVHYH
Particulars: MAP3K2 (MEKK2), LanthaScreen Binding.

In assay [4] the target is off-target kinases (Homo sapiens, UniProt P22612). To be noted: PRKACG (PRKAC gamma), LanthaScreen Binding.
The target of assay [5] is off-target kinases (Homo sapiens, UniProt P41240). To be noted: CSK, ZLYTE, ATP Km app.
In assay [6] the target is off-target kinases (Homo sapiens, UniProt P42685). To be noted: FRK (PTK5), ZLYTE, ATP Km app.
The target in assay [7] is off-target kinases (Homo sapiens, UniProt P30530, R499C). To be noted: AXL R499C, mutant y, LanthaScreen Binding.
Assay [8] concerns the target T2, off-target kinases (Homo sapiens, UniProt O15264).
T2 sequence (O15264 1-365): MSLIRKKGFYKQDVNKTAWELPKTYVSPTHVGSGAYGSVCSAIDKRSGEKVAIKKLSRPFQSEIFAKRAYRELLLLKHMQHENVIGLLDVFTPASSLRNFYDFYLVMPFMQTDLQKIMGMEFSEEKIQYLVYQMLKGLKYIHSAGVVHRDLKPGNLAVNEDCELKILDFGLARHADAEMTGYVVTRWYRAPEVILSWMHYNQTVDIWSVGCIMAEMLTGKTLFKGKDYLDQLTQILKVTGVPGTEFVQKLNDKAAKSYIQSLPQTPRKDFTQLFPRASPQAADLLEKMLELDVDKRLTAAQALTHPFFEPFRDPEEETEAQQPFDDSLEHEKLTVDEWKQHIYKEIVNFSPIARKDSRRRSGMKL
To be noted: MAPK13 (p38 delta), ZLYTE, ATP Km app.

Chain of off-target kinases (Homo sapiens, UniProt P22612) (P22612 whole entry): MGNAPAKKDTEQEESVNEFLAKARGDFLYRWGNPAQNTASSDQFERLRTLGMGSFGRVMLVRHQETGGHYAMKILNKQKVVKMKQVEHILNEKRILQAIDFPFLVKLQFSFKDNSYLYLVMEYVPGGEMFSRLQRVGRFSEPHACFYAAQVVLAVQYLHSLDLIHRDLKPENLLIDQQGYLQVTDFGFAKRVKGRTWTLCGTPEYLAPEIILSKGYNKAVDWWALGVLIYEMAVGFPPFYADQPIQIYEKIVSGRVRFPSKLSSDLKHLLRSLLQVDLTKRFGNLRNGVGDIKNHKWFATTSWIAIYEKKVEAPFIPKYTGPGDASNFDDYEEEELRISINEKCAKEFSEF
Chain of off-target kinases (Homo sapiens, UniProt O95819) (O95819 whole entry): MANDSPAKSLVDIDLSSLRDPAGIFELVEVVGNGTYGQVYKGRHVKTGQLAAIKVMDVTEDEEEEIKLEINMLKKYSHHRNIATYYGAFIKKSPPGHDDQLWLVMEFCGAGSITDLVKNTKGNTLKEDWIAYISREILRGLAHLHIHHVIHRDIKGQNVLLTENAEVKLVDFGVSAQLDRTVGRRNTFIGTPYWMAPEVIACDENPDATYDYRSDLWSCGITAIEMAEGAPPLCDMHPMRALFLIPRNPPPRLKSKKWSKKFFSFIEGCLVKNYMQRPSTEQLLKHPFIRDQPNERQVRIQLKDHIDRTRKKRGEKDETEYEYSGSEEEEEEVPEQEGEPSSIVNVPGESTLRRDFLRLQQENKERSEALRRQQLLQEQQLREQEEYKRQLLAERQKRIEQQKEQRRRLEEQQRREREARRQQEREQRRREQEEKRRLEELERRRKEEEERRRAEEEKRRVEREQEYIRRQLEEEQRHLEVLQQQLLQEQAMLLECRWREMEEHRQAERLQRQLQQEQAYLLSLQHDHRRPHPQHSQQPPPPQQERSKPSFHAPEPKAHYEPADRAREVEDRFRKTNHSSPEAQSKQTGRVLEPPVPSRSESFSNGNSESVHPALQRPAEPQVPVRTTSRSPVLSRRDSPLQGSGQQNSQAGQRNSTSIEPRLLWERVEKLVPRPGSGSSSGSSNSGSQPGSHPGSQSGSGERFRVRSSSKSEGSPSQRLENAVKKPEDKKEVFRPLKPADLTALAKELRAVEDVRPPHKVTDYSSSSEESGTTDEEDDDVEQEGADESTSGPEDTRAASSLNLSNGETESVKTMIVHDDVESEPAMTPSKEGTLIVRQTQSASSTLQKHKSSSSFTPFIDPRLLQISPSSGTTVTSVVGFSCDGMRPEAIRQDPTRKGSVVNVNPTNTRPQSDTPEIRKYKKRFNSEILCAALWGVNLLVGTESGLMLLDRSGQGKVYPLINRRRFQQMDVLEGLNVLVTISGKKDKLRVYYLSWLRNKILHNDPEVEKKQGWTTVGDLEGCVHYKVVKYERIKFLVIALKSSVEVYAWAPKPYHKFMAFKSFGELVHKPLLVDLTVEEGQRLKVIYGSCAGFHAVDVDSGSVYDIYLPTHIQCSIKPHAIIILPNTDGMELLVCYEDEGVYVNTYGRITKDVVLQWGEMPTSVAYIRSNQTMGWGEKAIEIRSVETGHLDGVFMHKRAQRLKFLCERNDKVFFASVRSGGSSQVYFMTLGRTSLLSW
Chain of off-target kinases (Homo sapiens, UniProt Q9NYY3) (Q9NYY3 whole entry): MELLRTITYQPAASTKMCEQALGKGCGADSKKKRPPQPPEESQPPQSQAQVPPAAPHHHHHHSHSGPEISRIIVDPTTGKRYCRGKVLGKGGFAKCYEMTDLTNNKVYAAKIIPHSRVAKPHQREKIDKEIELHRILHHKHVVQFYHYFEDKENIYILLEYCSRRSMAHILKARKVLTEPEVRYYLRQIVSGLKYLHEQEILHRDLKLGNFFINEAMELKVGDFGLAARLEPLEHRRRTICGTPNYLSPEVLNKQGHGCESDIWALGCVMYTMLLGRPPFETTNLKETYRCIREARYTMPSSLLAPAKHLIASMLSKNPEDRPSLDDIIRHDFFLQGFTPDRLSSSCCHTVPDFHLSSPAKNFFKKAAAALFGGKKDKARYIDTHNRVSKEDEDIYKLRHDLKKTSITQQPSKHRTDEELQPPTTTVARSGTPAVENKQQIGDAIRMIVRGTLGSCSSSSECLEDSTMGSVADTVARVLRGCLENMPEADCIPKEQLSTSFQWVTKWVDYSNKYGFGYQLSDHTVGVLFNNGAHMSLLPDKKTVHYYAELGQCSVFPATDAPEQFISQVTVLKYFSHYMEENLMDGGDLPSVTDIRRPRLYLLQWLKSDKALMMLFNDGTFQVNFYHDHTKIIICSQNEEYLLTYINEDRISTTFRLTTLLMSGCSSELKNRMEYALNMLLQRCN
Chain of off-target kinases (Homo sapiens, UniProt P30530, R499C) (P30530 26-894 R499C): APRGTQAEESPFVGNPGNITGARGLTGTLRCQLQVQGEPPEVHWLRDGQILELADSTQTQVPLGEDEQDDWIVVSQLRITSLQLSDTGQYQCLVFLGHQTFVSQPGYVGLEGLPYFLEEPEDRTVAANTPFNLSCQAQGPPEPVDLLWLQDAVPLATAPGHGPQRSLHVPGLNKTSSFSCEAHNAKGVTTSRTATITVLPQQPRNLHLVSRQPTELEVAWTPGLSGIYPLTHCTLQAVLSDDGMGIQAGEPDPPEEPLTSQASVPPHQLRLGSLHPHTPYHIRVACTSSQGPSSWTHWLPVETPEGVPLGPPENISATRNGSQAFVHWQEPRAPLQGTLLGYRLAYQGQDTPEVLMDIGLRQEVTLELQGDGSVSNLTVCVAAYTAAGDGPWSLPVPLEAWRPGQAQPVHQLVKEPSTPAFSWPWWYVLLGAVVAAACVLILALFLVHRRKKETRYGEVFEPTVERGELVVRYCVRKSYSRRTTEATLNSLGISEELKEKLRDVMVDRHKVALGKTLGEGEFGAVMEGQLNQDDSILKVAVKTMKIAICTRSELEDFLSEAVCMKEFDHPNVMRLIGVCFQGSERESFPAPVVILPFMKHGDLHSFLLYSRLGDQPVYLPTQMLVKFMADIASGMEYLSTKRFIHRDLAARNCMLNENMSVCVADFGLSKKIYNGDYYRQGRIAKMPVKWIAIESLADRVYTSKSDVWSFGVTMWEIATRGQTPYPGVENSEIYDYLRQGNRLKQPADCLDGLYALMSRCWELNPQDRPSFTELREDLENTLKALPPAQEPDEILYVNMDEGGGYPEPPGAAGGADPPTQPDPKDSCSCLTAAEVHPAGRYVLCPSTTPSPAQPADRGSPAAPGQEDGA
Chain of off-target kinases (Homo sapiens, UniProt P41240) (P41240 whole entry): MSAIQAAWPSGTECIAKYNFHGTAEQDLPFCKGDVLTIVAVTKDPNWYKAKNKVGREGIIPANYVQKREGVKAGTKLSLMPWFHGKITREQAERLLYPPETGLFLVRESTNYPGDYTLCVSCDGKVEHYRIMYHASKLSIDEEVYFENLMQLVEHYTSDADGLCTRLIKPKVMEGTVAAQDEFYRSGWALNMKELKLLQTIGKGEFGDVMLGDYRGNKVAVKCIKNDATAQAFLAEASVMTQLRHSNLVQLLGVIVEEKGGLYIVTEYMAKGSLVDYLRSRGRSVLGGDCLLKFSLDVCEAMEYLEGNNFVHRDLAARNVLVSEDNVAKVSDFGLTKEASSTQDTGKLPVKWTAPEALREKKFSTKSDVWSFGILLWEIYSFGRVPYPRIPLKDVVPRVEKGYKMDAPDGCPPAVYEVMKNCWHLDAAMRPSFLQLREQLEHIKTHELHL
Chain of off-target kinases (Homo sapiens, UniProt P42685) (P42685 whole entry): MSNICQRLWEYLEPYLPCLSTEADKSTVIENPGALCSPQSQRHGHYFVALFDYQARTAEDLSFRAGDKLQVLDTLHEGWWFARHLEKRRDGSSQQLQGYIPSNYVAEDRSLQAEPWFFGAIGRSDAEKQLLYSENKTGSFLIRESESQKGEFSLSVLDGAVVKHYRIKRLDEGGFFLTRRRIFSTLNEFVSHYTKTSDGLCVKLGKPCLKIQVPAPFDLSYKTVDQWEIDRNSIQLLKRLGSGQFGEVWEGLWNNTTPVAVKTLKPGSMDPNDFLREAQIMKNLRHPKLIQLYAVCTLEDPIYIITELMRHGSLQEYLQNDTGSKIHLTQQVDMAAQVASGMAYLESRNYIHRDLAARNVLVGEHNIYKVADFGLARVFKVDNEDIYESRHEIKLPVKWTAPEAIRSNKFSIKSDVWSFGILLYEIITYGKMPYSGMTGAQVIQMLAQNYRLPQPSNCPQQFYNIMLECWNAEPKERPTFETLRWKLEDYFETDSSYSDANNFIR

Turning to `N#Cc1cc(-c2ncnc(Nc3ccc(N4CCN(C5COC5)CC4)cc3)n2)ccc1OC1CCOCC1` [Compound 1, 5-(4-((4-(4-(oxetan-3-yl)piperazin-1-yl)phenyl)amino)-1,3,5-triazin-2-yl)-2-((tetrahydro-2H-pyran-4-yl)oxy)benzonitrile], the inhibition on off-target kinases [1] (read-out: % Inhibition 1) was 86%; on off-target kinases [1] (read-out: % Inhibition 2) it was 86%; at off-target kinases [1] (read-out: % Inhibition Avg) it was 86%; on off-target kinases [2] (read-out: % Inhibition 1) it was 60%; on off-target kinases [2] (read-out: % Inhibition 2), 64%; on off-target kinases [2] (read-out: % Inhibition Avg), 62%. The inhibition at off-target kinases [3] (read-out: % Inhibition 1) turned out to be 11%; on off-target kinases [3] (read-out: % Inhibition 2), 9%; on off-target kinases [3] (read-out: % Inhibition Avg), 10%; at off-target kinases [4] (read-out: % Inhibition 1) it was 28%; at off-target kinases [4] (read-out: % Inhibition 2), 19%; at off-target kinases [4] (read-out: % Inhibition Avg), 24%. The inhibition came to 13% at off-target kinases [5] (read-out: % Inhibition 1); 10% at off-target kinases [5] (read-out: % Inhibition 2); 12% at off-target kinases [5] (read-out: % Inhibition Avg); 11% at off-target kinases [6] (read-out: % Inhibition 1); 13% on off-target kinases [6] (read-out: % Inhibition 2); 12% at off-target kinases [6] (read-out: % Inhibition Avg). The inhibition was determined as 28% on off-target kinases [7] (read-out: % Inhibition 1); 27% at off-target kinases [7] (read-out: % Inhibition 2); 27% at off-target kinases [7] (read-out: % Inhibition Avg); 7% at off-target kinases [8] (read-out: % Inhibition 1); 9% at off-target kinases [8] (read-out: % Inhibition 2); 8% on off-target kinases [8] (read-out: % Inhibition Avg).
